Earlier results as cited in patent US5045452A, “Method for evaluating nephrotoxicity” (Brigham and Women's Hospital, priority 1988, dated 1991).

System: N-acetyl-beta-D-glucosaminidase
Conditions: exposed workers

## [Pb] [lead]
  urinary acetyl glucosaminidase excretion: elevated
